Measurements: BigSolDB 2.1

Nc1ccc(S(=O)(=O)Nc2ncccn2)cc1
solubility (mole fraction) (in ethanol, 293.15 K): 6.26e-06
solubility (mole fraction) (in ethanol, 298.15 K): 7.74e-06
solubility (mole fraction) (in ethanol, 303.15 K): 9.46e-06
solubility (mole fraction) (in ethanol, 308.15 K): 1.17e-05
solubility (mole fraction) (in ethanol, 313.15 K): 1.38e-05
solubility (mole fraction) (in water, 293.15 K): 3.8e-07
solubility (mole fraction) (in water, 298.15 K): 4.81e-07
solubility (mole fraction) (in water, 303.15 K): 6.49e-07
solubility (mole fraction) (in water, 308.15 K): 8.7e-07
solubility (mole fraction) (in water, 313.15 K): 1.14e-06
